PubChem BioAssay AID248 (DTP/NCI, 2004)
Values joined by “and” are separate entries in the source; they are usually repeats but may differ in a detail not shown here. Equal values may be shown once. Toxic doses and inconclusive results are not listed. No stated cut-off is given here; in the data, active means T/C of 150% or more; inactive means T/C below 125%.

Test system: L1210 leukemia ip in BDF1 mice, survival T/C
Experiment: NCI In Vivo Anticancer Drug Screen. Data for tumor model L1210 Leukemia (intraperitoneal) in B6D2F1 (BDF1) mice
Details: endpoint: mean survival time, higher = longer survival
How it was run: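 Transplanted-tumor mice were given test agent; controls received vehicle only. Survival readings from the two groups were divided (treated over control).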

[1] = dose: 100.0 mg/kg/injection, schedule: Q01DX009 (ip), vehicle: Klucel (hydroxypropylcellulose) (HPC)
[2] = dose: 100.0 mg/kg/injection, schedule: Q04DX003 (ip), vehicle: Klucel (hydroxypropylcellulose) (HPC)
[3] = dose: 200.0 mg/kg/injection, schedule: Q01DX009 (ip), vehicle: Klucel (hydroxypropylcellulose) (HPC)
[4] = dose: 200.0 mg/kg/injection, schedule: Q04DX003 (ip), vehicle: Klucel (hydroxypropylcellulose) (HPC)
[5] = dose: 400.0 mg/kg/injection, schedule: Q01DX009 (ip), vehicle: Klucel (hydroxypropylcellulose) (HPC)
[6] = dose: 400.0 mg/kg/injection, schedule: Q04DX003 (ip), vehicle: Klucel (hydroxypropylcellulose) (HPC)
[7] = dose: 100.0 mg/kg/injection, schedule: Q04DX003 (ip), vehicle: saline with Tween-80
[8] = dose: 25.0 mg/kg/injection, schedule: Q01DX009 (ip), vehicle: Klucel (hydroxypropylcellulose) (HPC)
[9] = dose: 50.0 mg/kg/injection, schedule: Q01DX009 (ip), vehicle: Klucel (hydroxypropylcellulose) (HPC)
[10] = dose: 100.0 mg/kg/injection, schedule: Q04DX002 (ip), vehicle: Klucel (hydroxypropylcellulose) (HPC)
[11] = dose: 200.0 mg/kg/injection, schedule: Q04DX002 (ip), vehicle: Klucel (hydroxypropylcellulose) (HPC)
[12] = dose: 400.0 mg/kg/injection, schedule: Q04DX002 (ip), vehicle: Klucel (hydroxypropylcellulose) (HPC)
[13] = dose: 100.0 mg/kg/injection, schedule: Q01DX001 (ip), vehicle: saline
[14] = dose: 200.0 mg/kg/injection, schedule: Q01DX001 (ip), vehicle: saline
[15] = dose: 100.0 mg/kg/injection, schedule: Q01DX009 (ip), vehicle: saline

Measured: T/C

CCOC(=O)C1CCN(S(=O)(=O)c2ccc(C)cc2)c2cc(Cl)ccc2C1=O (centres undefined)
inactive: [1] 93 % of control | [2] 96 % of control | [3] 93 % of control | [4] 93 % of control | [5] 101 % of control | [6] 94 % of control

CCCCOC(=O)CSSCC(=O)OCCCC
inactive: [7] 106 % of control | dose: 200.0 mg/kg/injection, schedule: Q04DX003 (ip), vehicle: saline with Tween-80 109 % of control

O=C(Nc1ccccc1F)Sc1c(Cl)c(Cl)nc(Cl)c1Cl
inactive: [8] 96 % of control and 101 % of control | dose: 25.0 mg/kg/injection, schedule: Q04DX003 (ip), vehicle: Klucel (hydroxypropylcellulose) (HPC) 105 % of control | [9] 94 % of control and 101 % of control | dose: 50.0 mg/kg/injection, schedule: Q04DX003 (ip), vehicle: Klucel (hydroxypropylcellulose) (HPC) 102 % of control | [10] 101 % of control and 107 % of control | [2] 113 % of control | [11] 96 % of control and 106 % of control | [12] 103 % of control and 115 % of control

ClCC1=NCCCN1
inactive: dose: 3.13 mg/kg/injection, schedule: Q01DX009 (ip), vehicle: Klucel (hydroxypropylcellulose) (HPC) 93 % of control | dose: 6.25 mg/kg/injection, schedule: Q01DX009 (ip), vehicle: Klucel (hydroxypropylcellulose) (HPC) 97 % of control | dose: 12.5 mg/kg/injection, schedule: Q01DX009 (ip), vehicle: Klucel (hydroxypropylcellulose) (HPC) 97 % of control | dose: 12.5 mg/kg/injection, schedule: Q04DX002 (ip), vehicle: Klucel (hydroxypropylcellulose) (HPC) 97 % of control | [8] 97 % of control | dose: 25.0 mg/kg/injection, schedule: Q04DX002 (ip), vehicle: Klucel (hydroxypropylcellulose) (HPC) 104 % of control | [9] 97 % of control | dose: 50.0 mg/kg/injection, schedule: Q04DX002 (ip), vehicle: Klucel (hydroxypropylcellulose) (HPC) 104 % of control | [10] 98 % of control

C=CCC1(CC)C(=O)NC(=O)NC1=O
inactive: dose: 50.0 mg/kg/injection, schedule: Q01DX009 (ip), vehicle: saline sonified 102 % of control | dose: 100.0 mg/kg/injection, schedule: Q01DX009 (ip), vehicle: saline sonified 110 % of control | [2] 94 % of control | dose: 200.0 mg/kg/injection, schedule: Q01DX009 (ip), vehicle: saline sonified 108 % of control | [4] 94 % of control

Cc1cc(Nc2ccc(C)c(Cl)c2)nc(N)n1
inactive: dose: 100.0 mg/kg/injection, schedule: Q01DX Z (ip), vehicle: methylcellulose (MC) 89 % of control

O=C(NNC(=O)c1cccc([N+](=O)[O-])c1)C(=O)NNC(=O)c1cccc([N+](=O)[O-])c1
inactive: [1] 100 % of control | [3] 110 % of control | [5] 105 % of control

CCOC(=O)CCNC(COCc1ccccc1)C(=O)OCC (centres undefined)
inactive: [13] 98 % of control | [14] 95 % of control | dose: 400.0 mg/kg/injection, schedule: Q01DX001 (ip), vehicle: saline 106 % of control

C=C(C)C(Br)=C(C)C
inactive: dose: 100.0 mg/kg/injection, schedule: Q01DX001 (ip), vehicle: DMSO 96 % of control

N#Cc1cnc(N)c(C#N)c1
inactive: dose: 74.0 mg/kg/injection, schedule: Q01DX009 (ip), vehicle: Klucel (hydroxypropylcellulose) (HPC) 98 % of control | dose: 150.0 mg/kg/injection, schedule: Q01DX009 (ip), vehicle: Klucel (hydroxypropylcellulose) (HPC) 100 % of control

O=c1c(=O)c2ccccc2c(=O)/c1=N/Nc1ccccc1
inactive: dose: 100.0 mg/kg/injection, schedule: Q01DX001 (ip), vehicle: water 98 % of control | dose: 200.0 mg/kg/injection, schedule: Q01DX001 (ip), vehicle: water 95 % of control | dose: 400.0 mg/kg/injection, schedule: Q01DX001 (ip), vehicle: water 97 % of control

Cc1ccnc(NC(=O)CCc2ccccc2)c1
inactive: [10] 95 % of control | [11] 100 % of control | [12] 92 % of control

COc1cc(OC)c(NC(=S)Nc2ccc([N+](=O)[O-])cc2)cc1Cl
inactive: dose: 50.0 mg/kg/injection, schedule: Q01DX009 (ip), vehicle: saline with Tween-80 92 % of control | dose: 100.0 mg/kg/injection, schedule: Q01DX009 (ip), vehicle: saline with Tween-80 88 % of control | dose: 200.0 mg/kg/injection, schedule: Q01DX009 (ip), vehicle: saline with Tween-80 90 % of control

O=[N+]([O-])c1cc([N+](=O)[O-])cc(S(=O)(=O)O)c1
inactive: dose: 25.0 mg/kg/injection, schedule: Q01DX009 (ip), vehicle: saline 106 % of control | dose: 50.0 mg/kg/injection, schedule: Q01DX009 (ip), vehicle: saline 105 % of control | [15] 100 % of control and 111 % of control | dose: 100.0 mg/kg/injection, schedule: Q04DX003 (ip), vehicle: saline 105 % of control | dose: 200.0 mg/kg/injection, schedule: Q04DX003 (ip), vehicle: saline 105 % of control

CCCCCCCC/C=C\CCCCCCCC(=O)O.[Cu+2]
inactive: [13] 105 % of control | [14] 96 % of control

COC(=O)c1cc(O)c(C(=O)OC)s1
inactive: [1] 101 % of control | [3] 98 % of control | [5] 95 % of control

Nc1c(Cl)cc(S(N)(=O)=O)cc1Cl
inactive: dose: 100.0 mg/kg/injection, schedule: Q01DX009 (ip), vehicle: other 98 % of control | dose: 100.0 mg/kg/injection, schedule: Q04DX003 (ip), vehicle: other 100 % of control | dose: 200.0 mg/kg/injection, schedule: Q01DX009 (ip), vehicle: other 91 % of control | dose: 200.0 mg/kg/injection, schedule: Q04DX003 (ip), vehicle: other 98 % of control | dose: 400.0 mg/kg/injection, schedule: Q04DX003 (ip), vehicle: other 98 % of control

CCOC(=O)P(C(=O)OCC)C(=O)OCC
inactive: dose: 75.0 mg/kg/injection, schedule: Q01DX001 (ip), vehicle: saline 97 % of control

COc1ccccc1C(=O)N/N=C/c1ccccc1Cl
inactive: [8] 96 % of control | [9] 96 % of control | [1] 104 % of control and 105 % of control | [2] 108 % of control | [3] 108 % of control | [4] 111 % of control | [5] 103 % of control | [6] 108 % of control

Cn1ccc(=O)nc1
inactive: [15] 94 % of control | dose: 200.0 mg/kg/injection, schedule: Q01DX009 (ip), vehicle: saline 103 % of control | dose: 400.0 mg/kg/injection, schedule: Q01DX009 (ip), vehicle: saline 100 % of control

N=C(N)SCc1ccc(Cl)cc1
inactive: dose: 25.0 mg/kg/injection, schedule: Q04DX002 (ip), vehicle: saline 98 % of control | dose: 50.0 mg/kg/injection, schedule: Q04DX002 (ip), vehicle: saline 94 % of control | dose: 100.0 mg/kg/injection, schedule: Q04DX002 (ip), vehicle: saline 101 % of control

NC(CNC(=O)OCc1ccccc1)=NCC(=O)O
inactive: dose: 25.0 mg/kg/injection, schedule: Q04DX003 (ip), vehicle: saline with Tween-80 94 % of control | dose: 50.0 mg/kg/injection, schedule: Q04DX003 (ip), vehicle: saline with Tween-80 89 % of control | [7] 89 % of control and 92 % of control

CCSC1C(O)C(C(O)CO)OC1n1cc(C)c(=O)[nH]c1=O (centres undefined)
inactive: dose: 100.0 mg/kg/injection, schedule: Q01DX005 (ip), vehicle: saline 102 % of control | dose: 200.0 mg/kg/injection, schedule: Q01DX005 (ip), vehicle: saline 107 % of control
